Activity calls are given as the source filed them.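 The calls were made as follows: active = viability under 80% of untreated control mean at any tested dose, taken as cytotoxic; inactive = the rest.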

The assay has as its system PC3 viability, CellTiter-Glo luminescence, 72 h. As to the kind of experiment: PC3 prostate cell cytotoxicity, dose response, cytotoxicity control for HSV oncolysis enhancer project, selected hits (AID 504755).
In the case of `COc1cccc(C(=O)NCCCN2CCN(CCCNC(=O)c3cccc(OC)c3)CC2)c1`, the CC50 (commonly the concentration at which the toxic effect on the cells reaches its halfway point) is > 100 µM (inactive).
Turning to `COc1cc(C(=O)OCCCN2CCCC2)cc(OC)c1OC`, the CC50 was > 100 µM (inactive).
Then `O=C(/C=C/c1ccc2c(c1)OCO2)N1CCCN(C(=O)/C=C/c2ccc3c(c2)OCO3)CC1`, with > 100 µM (inactive); and `COc1cc(C(=O)OCCN2CCOCC2)cc(OC)c1OC`, with > 100 µM (inactive).
Next, `CN1CCCN(CCCOC(=O)c2ccc(F)cc2)CC1`: > 100 µM (inactive).
Then `COc1cc(C(=O)OCCN2CCCN(Cc3ccccc3)CC2)cc(OC)c1OC`, with > 100 µM (inactive).
On to `COc1cc(C(=O)OCCCN2CCOCC2)cc(OC)c1OC`, for which the CC50 was > 100 µM (inactive).
Regarding `COc1cc(C(=O)OCCCN2CCN(C)CC2)cc(OC)c1OC`, the CC50 was > 100 µM (inactive).
With `COc1cc(OC)cc(C(=O)OCCN2CCN(CCOC(=O)c3cc(OC)cc(OC)c3)CC2)c1`, the CC50 was > 100 µM (inactive).
On to `NCCCN1CCCN(CCCN)CC1`, for which the CC50 was > 100 µM (inactive).
Then `CNCCN(C)CCOC(=O)c1cc(OC)c(OC)c(OC)c1`, with > 100 µM (inactive).
With `COc1cc(C(=O)OCCN2CCN(CCOC(=O)c3cc(OC)c(OC)c(OC)c3)CC2)cc(OC)c1OC`, the CC50 was > 100 µM (inactive).
For `COc1cc(C(=O)OCCN2CCCN(CCOC(=O)c3cc(OC)c(OC)c(OC)c3)CC2)cc(OC)c1OC`, the CC50 is > 100 µM (inactive).
Regarding `CN1CCN(CCCOC(=O)c2ccc(F)cc2)CC1`, the CC50 is > 100 µM (inactive).
Consider `COc1ccc(C(=O)OCCN2CCN(CCOC(=O)c3ccc(OC)cc3)CC2)cc1`, for which the CC50 was > 100 µM (inactive).
Turning to `COc1ccc(C(=O)OCCN2CCCN(C)CC2)cc1`, the CC50 was > 100 µM (inactive).
Regarding `COc1cc(C(=O)NCCCN2CCCN(CCCNC(=O)c3cc(OC)c(OC)c(OC)c3)CC2)cc(OC)c1OC`, the CC50 was > 100 µM (inactive).
Consider `COc1cc(OC)cc(C(=O)OCCN2CCCN(CCOC(=O)c3cc(OC)cc(OC)c3)CC2)c1`, for which the CC50 is > 100 µM (inactive).
Then `COc1ccc(C(=O)OCCCN2CCCC2)cc1`, with > 100 µM (inactive); and `COc1cc(OC)cc(C(=O)OCCCN2CCCN(Cc3ccccc3)CC2)c1`, with > 100 µM (inactive).
`COc1ccc(C(=O)OCCN2CCN(C)CC2)cc1`: the CC50 was > 100 µM (inactive).
With `COc1cc(C(=O)OCCN2CCN(C)CC2)cc(OC)c1OC`, the CC50 is > 100 µM (inactive).
Take `COc1cc(OC)cc(C(=O)OCCCN2CCCN(C)CC2)c1`: the CC50 was > 100 µM (inactive).
Next, `CN1CCN(CCCOC(=O)c2ccccc2)CC1`: > 100 µM (inactive).
Next, `COc1cc(C(=O)OCCCN2CCCN(C(C)=O)CC2)cc(OC)c1OC`: > 100 µM (inactive).
Next, `COc1ccc(C(=O)OCCCN2CCN(C)CC2)cc1`: > 100 µM (inactive); `COc1cc(C(=O)OCCN2CCCC2)cc(OC)c1OC`: > 100 µM (inactive).
On to `O=C(OCCCN1CCOCC1)c1ccc(F)cc1`, for which the CC50 was > 100 µM (inactive).
On to `COc1cc(NC(=O)Nc2cc(OC)c(OC)c(OC)c2)cc(OC)c1OC`, for which the CC50 was > 100 µM (inactive).
Next, `COc1ccc(C(=O)OCCCN2CCOCC2)cc1`: > 100 µM (inactive).
As to `COc1cc(C(=O)OCCCN(C)CCN(C)CCCOC(=O)c2cc(OC)c(OC)c(OC)c2)cc(OC)c1OC`, the CC50 was > 100 µM (inactive).
Then `COc1ccc(C(=O)NCCCN2CCCN(C)CC2)cc1`, with > 100 µM (inactive).
Consider `COc1ccc(C(=O)OCCCN2CCN(CCCOC(=O)c3ccc(OC)cc3)CC2)cc1`, for which the CC50 is > 100 µM (inactive).
Then `COc1ccc(N2C(=O)CC(N3CCCN(C4CC(=O)N(c5ccc(OC)cc5)C4=O)CC3)C2=O)cc1` (stereo not drawn), with > 100 µM (inactive); and `COc1cc(C(=O)OCCCN2CCCN(CCCOC(=O)c3cc(OC)c(OC)c(OC)c3)CC2)cc(OC)c1OC`, with > 100 µM (inactive); and `O=C(CCN1CCCN(CCC(=O)Nc2ccccc2)CC1)Nc1ccccc1`, with > 100 µM (inactive).
Take `O=C(OCCCN1CCCN(CCCOC(=O)c2ccc(F)cc2)CC1)c1ccc(F)cc1`: the CC50 is 73.6 µM.
Regarding `COc1cc(OC)cc(C(=O)OCCCN2CCN(C)CC2)c1`, the CC50 is > 100 µM (inactive).
On to `COc1ccc(C(=O)OCCCNCCNCCCOC(=O)c2ccc(OC)cc2)cc1`, for which the CC50 is 24.1 µM.
Next, `COc1cc(OC)cc(C(=O)OCCN2CCCC2)c1`: > 100 µM (inactive); `O=C(OCCCN1CCN(CCCOC(=O)c2ccc(F)cc2)CC1)c1ccc(F)cc1`: > 100 µM (inactive); `COc1cc(C(=O)OCCN2CCCN(C)CC2)cc(OC)c1OC`: > 100 µM (inactive).
Next, `COc1ccc(C(=O)OCCCN2CCCN(C)CC2)cc1`: > 100 µM (inactive).
As to `COc1cc(C(=O)OCCCN2CCCN(C)CC2)cc(OC)c1OC`, the CC50 is > 100 µM (inactive).
For `COc1cc(C(=O)OCCCN2CCCNCC2)cc(OC)c1OC`, the CC50 is > 100 µM (inactive).
Then `COc1cc(OC)cc(C(=O)OCCN2CCCN(C)CC2)c1`, with > 100 µM (inactive); and `O=C(CN1CCCN(CC(=O)CN2C(=O)c3ccccc3C2=O)CC1)CN1C(=O)c2ccccc2C1=O`, with > 100 µM (inactive); and `COc1cc(-c2cn(CCCN3CCCN(CCCn4cc(-c5cc(OC)c(OC)c(OC)c5)nn4)CC3)nn2)cc(OC)c1OC`, with > 100 µM (inactive).
Then `COc1cc(OC)cc(C(=O)OCCCNCCNCCCOC(=O)c2cc(OC)cc(OC)c2)c1`, with 31.7 µM.
Take `CNCCN(C)CCCOC(=O)c1ccc(F)cc1`: the CC50 is > 100 µM (inactive).
Then `O=C(OCCCN1CCN(CCCOC(=O)c2ccccc2)CC1)c1ccccc1`, with > 100 µM (inactive).
Then `CNCCN(C)CCOC(=O)c1cc(OC)cc(OC)c1`, with > 100 µM (inactive).
As for `COc1ccc(C(=O)OCCN2CCCN(CCOC(=O)c3ccc(OC)cc3)CC2)cc1`, the CC50 was > 100 µM (inactive).
As to `CNCCN(C)CCCOC(=O)c1ccc(OC)cc1`, the CC50 is > 100 µM (inactive).
With `CC(=O)NCCCN1CCCN(CCCNC(C)=O)CC1`, the CC50 is > 100 µM (inactive).
Next, `COc1cc(C(=O)OCCCN2CCCN(C(=O)OC(C)(C)C)CC2)cc(OC)c1OC`: > 100 µM (inactive); `O=C(NCCCN1CCN(CCCNC(=O)c2ccc3c(c2)OCO3)CC1)c1ccc2c(c1)OCO2`: > 100 µM (inactive).
On to `COc1cc(C(=O)OCCCN2CCN(CCCOC(=O)c3cc(OC)c(OC)c(OC)c3)CC2)cc(OC)c1OC`, for which the CC50 was > 100 µM (inactive).
With `COc1cc(C(=O)N2CCCN(C(=O)c3cc(OC)c(OC)c(OC)c3)CC2)cc(OC)c1OC`, the CC50 is > 100 µM (inactive).
As for `COc1cc(COCCCN2CCCN(CCCOCc3cc(OC)c(OC)c(OC)c3)CC2)cc(OC)c1OC`, the CC50 is > 100 µM (inactive).
As to `COc1cc(OC)cc(C(=O)OCCN2CCN(C)CC2)c1`, the CC50 is > 100 µM (inactive).
Next, `COc1cc(OC)cc(C(=O)OCCCN2CCN(CCCOC(=O)c3cc(OC)cc(OC)c3)CC2)c1`: 102 µM; `CN1CCCN(CCCOC(=O)c2ccccc2)CC1`: > 100 µM (inactive).
Then `COc1ccc(C(=O)OCCN2CCCN(Cc3ccccc3)CC2)cc1`, with > 100 µM (inactive); and `COc1cc(C(=O)OCCCN2CCCN(C(=O)c3ccccc3)CC2)cc(OC)c1OC`, with > 100 µM (inactive); and `COc1cc(CN2CCCN(Cc3cc(OC)c(OC)c(OC)c3)CC2)cc(OC)c1OC`, with > 100 µM (inactive).
Then `COc1cc(NC(=O)N2CCCN(C(=O)Nc3cc(OC)c(OC)c(OC)c3)CC2)cc(OC)c1OC`, with > 100 µM (inactive).
In the case of `COc1cc(OC)cc(C(=O)OCCN2CCOCC2)c1`, the CC50 is > 100 µM (inactive).

The record behind these values is PubChem BioAssay AID504755 (Southern Research Specialized Biocontainment Screening …, 2011).
